From US20240043435A1, “TYK-2 INHIBITOR” (BEIGENE, LTD., priority 2020, published 2024) come the findings set out here.

In test [1] the target is T1, TYK2-JH2 (aa 575-869, in-house) protein (Homo sapiens, UniProt P29597).
T1 construct: TYK2-JH2 (aa 575-869, in-house) protein; made in house
Kind of test: TYK2-JH2 biochemical assay (HTRF probe displacement). Conditions: Biochemical assay; read-out: TYK2-JH2 IC50. Format: binding. The method, boiled down: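 Recombinant TYK2-JH2 (0.2 nM) was pre-incubated 0.5 h at room temperature with compounds (10 doses, 5-fold dilution; 500× DMSO stocks from 500 uM) in 20 mM HEPES pH 7.5, 10 mM MgCl2, 0.005% BSA, 2 mM DTT, 0.015% Brij-35. Probe displacement was read by HTRF (ex337, em620/665 nm); IC50 from four-parameter logistic fit.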
On the technique in general: Time-resolved FRET reads energy transfer from a long-lived donor to a nearby acceptor.

In the next test the test system is pSTAT5/GM-CSF. The experiment in a line: pSTAT5/GM-CSF cellular assay (JAK2 selectivity). Format: cell-based. Conditions: for Selectivity fold (TYK2/JAK2): pSTAT5/GM-CSF IC50 over pSTAT4/IL-12 IC50.
Test [2] concerns JAK2, TYK2/p-STAT4 (Tyr693) activated by IL-12 in NK-92 cell line. Kind of test: IL-12-JAK2, TYK2/p-STAT4 (Tyr693) inhibition IC50 cellular assay. In kind it is cell-based. The conditions noted are these: for Selectivity fold (TYK2/JAK2): Cellular assay, pSTAT5/GM-CSF IC50 vs pSTAT4/IL-12 IC50; for IC50: NK92, Cellular assay, read-out: pSTAT4/IL-12 IC50. The method, boiled down: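 NK-92 cells were starved overnight without IL-2 and preincubated 1 h at 37° C with compound (8 doses, 10000–0.61 nM, 4-fold, 0.2% DMSO). They were then stimulated with IL-12 (40 ng/ml final) for 30 min. Lysate p-STAT4 (Tyr693) was read by AlphaLISA SureFire; IC50 from four-parameter logistic fit.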

A value given as a limit tells only on which side of the number the result lay.

T1 sequence (P29597 575-869): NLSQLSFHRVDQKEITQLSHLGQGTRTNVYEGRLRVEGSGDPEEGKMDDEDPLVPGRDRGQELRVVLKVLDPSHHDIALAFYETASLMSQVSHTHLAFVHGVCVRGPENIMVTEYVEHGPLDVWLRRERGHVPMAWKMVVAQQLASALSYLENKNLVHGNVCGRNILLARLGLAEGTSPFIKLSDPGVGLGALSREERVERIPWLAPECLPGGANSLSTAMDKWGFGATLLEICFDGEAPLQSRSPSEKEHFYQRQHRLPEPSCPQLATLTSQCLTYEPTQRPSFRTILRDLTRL

`COCc1cc(Nc2cc(NC(C)=O)ncc2-c2ccc(C(C)(C)O)cn2)nc(S(C)(=O)=O)c1` [Example H13, N-(5-(2-hydroxypropan-2-yl)-4′-((4-(methoxymethyl)-6-(methylsulfonyl)pyridin-2-yl)amino)-[2,3′-bipyridin]-6′-yl)acetamide]: the IC50 in test [1] was 0.042 nM; with pSTAT5/GM-CSF, 4080 nM; in test [2] it was 0.676 nM. For the same compound, in test [2], the “Selectivity fold (TYK2/JAK2)” value was 6028 fold.

On to `CC(=O)Nc1cc(Nc2cc(OC(F)F)cc(S(C)(=O)=O)c2)c(-c2ccn(C)n2)cn1` [Example J62, N-(4-((3-(difluoromethoxy)-5-(methylsulfonyl)phenyl)amino)-5-(1-methyl-1H-pyrazol-3-yl)pyridin-2-yl)acetamide], for which the IC50 in test [1] was 0.037 nM; in the test on pSTAT5/GM-CSF, more than 10000 nM; in test [2], 4.85 nM. Also, the “Selectivity fold (TYK2/JAK2)” value with pSTAT5/GM-CSF was more than 2061 fold.

On to `CC(=O)Nc1cc(Nc2cc(C)cc(S(C)(=O)=O)n2)c(-c2ccc3c(n2)OCC(C)(C)O3)cn1` [Example Q21, N-(5-(2,2-dimethyl-2,3-dihydro-[1,4]dioxino[2,3-b]pyridin-6-yl)-4-((4-methyl-6-(methylsulfonyl)pyridin-2-yl)amino)pyridin-2-yl)acetamide], for which the figures for the IC50 (in test [1]; in the test with pSTAT5/GM-CSF; in test [2]) were 0.037 nM, 1570 nM and 0.411 nM, respectively. Moreover, the “Selectivity fold (TYK2/JAK2)” value in the test on pSTAT5/GM-CSF came to 3824 fold.

Take `COCc1ccc(-c2cnc(NC(C)=O)cc2Nc2cc(O[C@H]3C[C@H](O)C3)cc(S(C)(=O)=O)n2)nc1` [Example E8, N-(4′-((4-((1r,3r)-3-hydroxycyclobutoxy)-6-(methylsulfonyl)pyridin-2-yl)amino)-5-(methoxymethyl)-[2,3′-bipyridin]-6′-yl)acetamide]: the IC50 in test [1] was 0.034 nM; with pSTAT5/GM-CSF, more than 10000 nM; in test [2] it was 2.86 nM. The “Selectivity fold (TYK2/JAK2)” value in test [2] is on record as more than 3496 fold.

Consider `COc1cc(Nc2cc(NC(C)=O)ncc2-c2ccn([C@@H]3CCOC3)n2)nc(S(C)(=O)=O)c1` [Example M35, (R)-N-(4-((4-methoxy-6-(methylsulfonyl)pyridin-2-yl)amino)-5-(1-(tetrahydrofuran-3-yl)-1H-pyrazol-3-yl)pyridin-2-yl)acetamide], for which the figures for the IC50 (in test [1]; in the test with pSTAT5/GM-CSF; in test [2]) were 0.036 nM, more than 10000 nM and 50.2 nM, respectively. Besides, in the test on pSTAT5/GM-CSF, the “Selectivity fold (TYK2/JAK2)” value is listed as more than 199 fold.

Consider `CC(=O)Nc1cc(Nc2cc(N3CCOCC3)cc(S(C)(=O)=O)n2)c(-c2ccc3c(n2)OCC(C)(C)O3)cn1` [Example Q22, N-(5-(2,2-dimethyl-2,3-dihydro-[1,4]dioxino[2,3-b]pyridin-6-yl)-4-((6-(methylsulfonyl)-4-morpholinopyridin-2-yl)amino)pyridin-2-yl)acetamide], for which the IC50 in test [1] came out at 0.025 nM; with pSTAT5/GM-CSF, 3960 nM; in test [2] it was 0.584 nM. Besides, in the test on pSTAT5/GM-CSF, the “Selectivity fold (TYK2/JAK2)” value worked out at 6779 fold.

In the case of `[2H]C([2H])([2H])Oc1cc(Nc2cc(NC(C)=O)ncc2-c2ccc3c(n2)OCC(C)(C)O3)nc(S(C)(=O)=O)c1` [Example Q24, N-(5-(2,2-dimethyl-2,3-dihydro-[1,4]dioxino[2,3-b]pyridin-6-yl)-4-((4-(methoxy-d3)-6-(methylsulfonyl)pyridin-2-yl)amino)pyridin-2-yl)acetamide], the IC50 in test [1] worked out at 0.033 nM; with pSTAT5/GM-CSF it was 620 nM; in test [2], 0.559 nM. The “Selectivity fold (TYK2/JAK2)” value with pSTAT5/GM-CSF is 1109 fold.

Consider `CC(=O)Nc1cc(Nc2ccc(F)c(S(C)(=O)=O)n2)c(-c2ccc(C(C)(C)O)cn2)cn1` [Example H34, N-(4′-((5-fluoro-6-(methylsulfonyl)pyridin-2-yl)amino)-5-(2-hydroxypropan-2-yl)-[2,3′-bipyridin]-6′-yl)acetamide], for which the results for the IC50 (in test [1]; with pSTAT5/GM-CSF; in test [2]) were 0.023 nM, more than 10000 nM and 1.12 nM, respectively. Further, the “Selectivity fold (TYK2/JAK2)” value in test [2] is given as more than 8928 fold.

As to `CC(=O)Nc1cc(Nc2cc(O[C@H]3C[C@@H](O)C3)cc(S(C)(=O)=O)n2)c(-c2ccc(C(C)(C)O)cn2)cn1` [Example H28, N-(4′-((4-(cis-3-hydroxycyclobutoxy)-6-(methylsulfonyl)pyridin-2-yl)amino)-5-(2-hydroxypropan-2-yl)-[2,3′-bipyridin]-6′-yl)acetamide], the figures for the IC50 (in test [1]; with pSTAT5/GM-CSF; in test [2]) were 0.03 nM, more than 10000 nM and 29.2 nM, respectively. For the same compound, the “Selectivity fold (TYK2/JAK2)” value in test [2] is listed as more than 342 fold.

For `CC(=O)Nc1cc(Nc2nc(S(C)(=O)=O)ccc2C)c(-c2ccn(C)n2)cn1` [Example J27, N-(5-(1-methyl-1H-pyrazol-3-yl)-4-((3-methyl-6-(methylsulfonyl)pyridin-2-yl)amino)pyridin-2-yl)acetamide], the IC50 in test [1] is 0.04 nM; with pSTAT5/GM-CSF, more than 10000 nM; in test [2], 0.439 nM. Also, the “Selectivity fold (TYK2/JAK2)” value in the test on pSTAT5/GM-CSF is reported as more than 22779 fold.

As for `CC(=O)Nc1cc(Nc2cc(C)cc(S(C)(=O)=O)c2)c(-c2ccc(C(C)(C)O)cn2)cn1` [Example H21, N-(5-(2-hydroxypropan-2-yl)-4′-((3-methyl-5-(methylsulfonyl)phenyl)amino)-[2,3′-bipyridin]-6′-yl)acetamide], the values for the IC50 (in test [1]; with pSTAT5/GM-CSF; in test [2]) were 0.024 nM, more than 10000 nM and 2.24 nM, respectively. In addition, the “Selectivity fold (TYK2/JAK2)” value in test [2] is on record as more than 4464 fold.

For the compound `CC(=O)Nc1cc(Nc2cc(C3CCOCC3)cc(S(C)(=O)=O)n2)c(-c2ccc(N3C[C@@H](C)O[C@@H](C)C3)cn2)cn1` [Example C21, N-(5-(cis-2,6-dimethylmorpholino)-4′-((6-(methylsulfonyl)-4-(tetrahydro-2H-pyran-4-yl)pyridin-2-yl)amino)-[2,3′-bipyridin]-6′-yl)acetamide], the figures for the IC50 (in test [1]; in the test on pSTAT5/GM-CSF; in test [2]) were 0.024 nM, more than 10000 nM and 0.995 nM, respectively. Besides, the “Selectivity fold (TYK2/JAK2)” value in test [2] is recorded as more than 10050 fold.

As for `CCn1ccc(-c2cnc(NC(C)=O)cc2Nc2cc(COC)cc(S(C)(=O)=O)c2)n1` [Example M12, N-(5-(1-ethyl-1H-pyrazol-3-yl)-4-((3-(methoxymethyl)-5-(methylsulfonyl)phenyl)amino)pyridin-2-yl)acetamide], the IC50 was 0.03 nM in test [1], more than 10000 nM with pSTAT5/GM-CSF and 9.12 nM in test [2]. For the same compound, the “Selectivity fold (TYK2/JAK2)” value with pSTAT5/GM-CSF is reported as more than 1096 fold.

With `CC(=O)Nc1cc(Nc2cc(C)cc(S(C)(=O)=O)n2)c(-c2ccn(C3CC3)n2)cn1` [Example M3, N-(5-(1-cyclopropyl-1H-pyrazol-3-yl)-4-((4-methyl-6-(methylsulfonyl)pyridin-2-yl)amino)pyridin-2-yl)acetamide], the IC50 in test [1] was determined as 0.031 nM; in the test with pSTAT5/GM-CSF it was 8350 nM; in test [2], 0.526 nM. The “Selectivity fold (TYK2/JAK2)” value in the test on pSTAT5/GM-CSF amounted to 15876 fold.

As for `COc1ccc(S(C)(=O)=O)nc1Nc1cc(NC(C)=O)ncc1-c1cnn(C)c1` [Example A11, N-(4-((3-methoxy-6-(methylsulfonyl)pyridin-2-yl)amino)-5-(1-methyl-1H-pyrazol-4-yl)pyridin-2-yl)acetamide], the IC50 in test [1] is 0.063 nM; with pSTAT5/GM-CSF, more than 10000 nM; in test [2] it was 41.7 nM. For the same compound, in test [2], the “Selectivity fold (TYK2/JAK2)” value is more than 239 fold.

Take `CC(=O)Nc1cc(Nc2cc(C)cc(S(C)(=O)=O)n2)c(-c2ccco2)cn1` [Example A9, N-(5-(furan-2-yl)-4-((4-methyl-6-(methylsulfonyl)pyridin-2-yl)amino)pyridin-2-yl)acetamide]: the IC50 in test [1] is 0.041 nM; with pSTAT5/GM-CSF, more than 10000 nM; in test [2] it was 1.33 nM. Besides, in test [2], the “Selectivity fold (TYK2/JAK2)” value is more than 7518 fold.

For `CC(=O)Nc1cc(Nc2cc(C3COCCO3)cc(S(C)(=O)=O)n2)c(-c2ccc3c(n2)OCC(C)(C)O3)cn1` (racemic) [Example Q50, (R/S)—N-(4-((4-(1,4-dioxan-2-yl)-6-(methylsulfonyl)pyridin-2-yl)amino)-5-(2,2-dimethyl-2,3-dihydro-[1,4]dioxino[2,3-b]pyridin-6-yl)pyridin-2-yl)acetamide], the results for the IC50 (in test [1]; in the test with pSTAT5/GM-CSF; in test [2]) were 0.019 nM, 2020 nM and 0.626 nM, respectively. In addition, the “Selectivity fold (TYK2/JAK2)” value in the test with pSTAT5/GM-CSF is 3231 fold.

For `CC(=O)Nc1cc(Nc2cc(-c3cnccc3C)cc(S(C)(=O)=O)n2)c(-c2ccc3c(n2)OCC(C)(C)O3)cn1` [Example Q62, N-(5-(2,2-dimethyl-2,3-dihydro-[1,4]dioxino[2,3-b]pyridin-6-yl)-4-((4-methyl-6′-(methylsulfonyl)-[3,4′-bipyridin]-2′-yl)amino)pyridin-2-yl)acetamide], the IC50 was 0.047 nM in test [1], more than 10000 nM in the test on pSTAT5/GM-CSF and 1.79 nM in test [2]. Further, the “Selectivity fold (TYK2/JAK2)” value in the test with pSTAT5/GM-CSF was more than 5586 fold.

Regarding `COCc1ccc(-c2cnc(NC(C)=O)cc2Nc2cc(OC(C)C)cc(S(C)(=O)=O)n2)nc1` [Example E4, N-(4′-((4-isopropoxy-6-(methylsulfonyl)pyridin-2-yl)amino)-5-(methoxymethyl)-[2,3′-bipyridin]-6′-yl)acetamide], the IC50 in test [1] is 0.022 nM; in the test with pSTAT5/GM-CSF, more than 10000 nM; in test [2] it was 0.536 nM. The “Selectivity fold (TYK2/JAK2)” value in test [2] is reported as more than 18656 fold.
